From ChEMBL document CHEMBL5247627, “1-Methyl-3-((4-(quinolin-4-yloxy)phenyl)amino)-1H-pyrazole-4-carboxamide derivatives as new rearranged during Transfection (RET) kinase inhibitors capable of suppressing resistant mutants in solvent-front regions” (Eur J Med Chem, 2022)
pIC50: −log10 of the molar value. The source made the active and inactive calls. The calls are words filed in the database; no cut-off is given here.

Key:
BaF3 [1] = assay: Antitumor activity against mouse BaF3 cells harbouring CCDC6-RET G810C cells xenografted in CB17-SCID mouse assessed as reduction in tumor growth at 10 mg/kg ip qd administered for 12 days measured every 2 days relative to control; type: functional; settings: BaF3, 288 h, time 12 day, read-out: TGI
[2] = Toxicity in CB17-SCID mouse xenografted with BaF3 cells expressing CCDC6-RET G810C assessed as loss of body weight measured at 10 to 30 mg/kg, ip qd administered for 12 days measured every 2 days; type: organism-based; settings: in vivo, 288 h, dose 10-30 mg/kg, time 12 day
BaF3 [3] = settings: Mus musculus, dose 100.0 nM, time 4.0 hrs
BaF3 [4] = assay: Antitumor activity against mouse BaF3 cells harbouring CCDC6-RET G810C cells xenografted in CB17-SCID mouse assessed as reduction in tumor growth administered intraperitoneally qd administered for 12 days measured every 2 days; type: functional, cell-based; settings: dose 10-30 mg/kg, route ip, time 12.0 day
BaF3 [5] = assay: Induction of apoptosis in mouse BaF3 cells harbouring CCDC6-RET G810C assessed as necrotic cells measured at 100 nM for 48 hrs by Annexin V-FITC staining based Guava easyCyte flow cytometric analysis (reference value: 0.35 %); type: functional
BaF3 [6] = assay: Induction of apoptosis in mouse BaF3 cells harbouring CCDC6-RET G810R assessed as late apoptotic cells measured at 300 nM for 48 hrs by Annexin V-FITC staining based Guava easyCyte flow cytometric analysis (reference value: 3.4 %); type: functional
BaF3 [7] = settings: Mus musculus, dose <= 100.0 nM, time 4.0 hrs
BaF3 [8] = assay: Antiproliferative activity against mouse BaF3 cells expressing wildtype rearranged during transfection kinase-KIF5B incubated for 74 to 76 hrs by cell counting kit 8 method
BaF3 [9] = settings: Mus musculus, dose <= 100.0 nM, time 4.0 hrs; remark: listed apart in the source
BaF3 [10] = assay: Antiproliferative activity against mouse BaF3 cells expressing rearranged during transfection kinase V804M-KIF5B incubated for 74 to 76 hrs by cell counting kit 8 method
BaF3 [11] = assay: Antiproliferative activity against mouse BaF3 cells expressing rearranged during transfection kinase V804M-CCDC6 incubated for 74 to 76 hrs by cell counting kit 8 method
BaF3 [12] = assay: Antitumor activity against mouse BaF3 cells harbouring CCDC6-RET G810C cells xenografted in CB17-SCID mouse assessed as reduction in tumor growth at 30 mg/kg ip qd administered for 12 days measured every 2 days relative to control; type: functional; settings: BaF3, 288 h, time 12 day, read-out: TGI
BaF3 [13] = assay: Induction of apoptosis in mouse BaF3 cells harbouring CCDC6-RET G810R assessed as viable cells measured at 100 nM for 48 hrs by Annexin V-FITC staining based Guava easyCyte flow cytometric analysis (reference value: 89.5 %); type: functional; settings: read-out: Activity
BaF3 [14] = assay: Induction of apoptosis in mouse BaF3 cells harbouring CCDC6-RET G810R assessed as necrotic cells measured at 33.3 nM for 48 hrs by Annexin V-FITC staining based Guava easyCyte flow cytometric analysis (reference value: 0.64 %); type: functional
BaF3 [15] = assay: Induction of apoptosis in mouse BaF3 cells harbouring CCDC6-RET G810C assessed as necrotic cells measured at 300 nM for 48 hrs by Annexin V-FITC staining based Guava easyCyte flow cytometric analysis (reference value: 0.35 %); type: functional
BaF3 [16] = settings: Mus musculus, CB17-SCID, Tumor/tissue, dose 10-30 mg/kg, route ip, time 13.0 day
BaF3 [17] = assay: Antiproliferative activity against mouse BaF3 cells expressing rearranged during transfection kinase G810C-CCDC6 incubated for 74 to 76 hrs by cell counting kit 8 method
[18] = molecular target: Proto-oncogene tyrosine-protein kinase receptor Ret/Coiled-coil domain-containing protein 6 (Mus musculus) (UniProt P35546+D3YZP9); assay: Inhibition of wild type rearranged during transfection kinase/CCDC6 phosphorylation in mouse BaF3 cells measured at 100 nM for 4 hrs by Western blot analysis; type: cell-based
BaF3 [19] = assay: Induction of apoptosis in mouse BaF3 cells harbouring CCDC6-RET G810C assessed as early apoptotic cells measured at 300 nM for 48 hrs by Annexin V-FITC staining based Guava easyCyte flow cytometric analysis (reference value: 6.10 %); type: functional
BaF3 [20] = assay: Induction of apoptosis in mouse BaF3 cells harbouring CCDC6-RET G810C assessed as viable cells measured at 100 nM for 48 hrs by Annexin V-FITC staining based Guava easyCyte flow cytometric analysis (reference value: 90.90 %); type: functional; settings: read-out: Activity
BaF3 [21] = settings: Mus musculus, dose 100.0 nM, time 4.0 hrs; remark: listed apart in the source
BaF3 [22] = assay: Antiproliferative activity against mouse BaF3 cells expressing rearranged during transfection kinase G810R-CCDC6 incubated for 74 to 76 hrs by cell counting kit 8 method
BaF3 [23] = assay: Induction of apoptosis in mouse BaF3 cells harbouring CCDC6-RET G810R assessed as necrotic cells measured at 300 nM for 48 hrs by Annexin V-FITC staining based Guava easyCyte flow cytometric analysis (reference value: 0.64 %); type: functional
BaF3 [24] = assay: Induction of apoptosis in mouse BaF3 cells harbouring CCDC6-RET G810R assessed as late apoptotic cells measured at 33.3 nM for 48 hrs by Annexin V-FITC staining based Guava easyCyte flow cytometric analysis (reference value: 3.4 %); type: functional
BaF3 [25] = assay: Antiproliferative activity against mouse BaF3 cells expressing rearranged during transfection kinase V804L-KIF5B incubated for 74 to 76 hrs by cell counting kit 8 method
BaF3 [26] = assay: Induction of apoptosis in mouse BaF3 cells harbouring CCDC6-RET G810C assessed as viable cells measured at 33.3 nM for 48 hrs by Annexin V-FITC staining based Guava easyCyte flow cytometric analysis (reference value: 90.90 %); type: functional; settings: read-out: Activity
BaF3 [27] = assay: Induction of apoptosis in mouse BaF3 cells harbouring CCDC6-RET G810R assessed as early apoptotic cells measured at 100 nM for 48 hrs by Annexin V-FITC staining based Guava easyCyte flow cytometric analysis (reference value: 6.46 %); type: functional
BaF3 [28] = assay: Induction of apoptosis in mouse BaF3 cells harbouring CCDC6-RET G810C assessed as late apoptotic cells measured at 33.3 nM for 48 hrs by Annexin V-FITC staining based Guava easyCyte flow cytometric analysis (reference value: 2.65 %); type: functional
BaF3 [29] = settings: Mus musculus, dose 100.0 nM, time 4.0 hrs; remark: listed apart in the source
BaF3 [30] = assay: Antiproliferative activity against mouse BaF3 cells expressing rearranged during transfection kinase V804L-G810C incubated for 74 to 76 hrs by cell counting kit 8 method
BaF3 [31] = assay: Induction of apoptosis in mouse BaF3 cells harbouring CCDC6-RET G810R assessed as necrotic cells measured at 100 nM for 48 hrs by Annexin V-FITC staining based Guava easyCyte flow cytometric analysis (reference value: 0.64 %); type: functional
BaF3 [32] = assay: Induction of apoptosis in mouse BaF3 cells harbouring CCDC6-RET G810C assessed as early apoptotic cells measured at 33.3 nM for 48 hrs by Annexin V-FITC staining based Guava easyCyte flow cytometric analysis (reference value: 6.10 %); type: functional

Sequence of Proto-oncogene tyrosine-protein kinase receptor Ret/Coiled-coil domain-containing protein 6 (Mus musculus) (D3YZP9 whole entry, looked up, the tested form may be a part): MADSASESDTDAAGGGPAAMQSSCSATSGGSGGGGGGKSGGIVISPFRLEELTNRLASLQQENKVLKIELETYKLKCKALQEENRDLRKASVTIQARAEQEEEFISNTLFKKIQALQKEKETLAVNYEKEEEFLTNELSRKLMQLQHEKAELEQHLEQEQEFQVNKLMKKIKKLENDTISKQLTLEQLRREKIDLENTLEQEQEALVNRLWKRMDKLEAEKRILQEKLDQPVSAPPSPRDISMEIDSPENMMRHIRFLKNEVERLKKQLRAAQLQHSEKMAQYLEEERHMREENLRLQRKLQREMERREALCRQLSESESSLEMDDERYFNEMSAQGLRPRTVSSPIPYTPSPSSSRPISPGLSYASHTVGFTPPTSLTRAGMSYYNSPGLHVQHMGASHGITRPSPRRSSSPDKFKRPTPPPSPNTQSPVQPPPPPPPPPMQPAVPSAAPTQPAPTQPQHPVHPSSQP
Sequence of Proto-oncogene tyrosine-protein kinase receptor Ret/Coiled-coil domain-containing protein 6 (Mus musculus) (P35546 whole entry, looked up, the tested form may be a part): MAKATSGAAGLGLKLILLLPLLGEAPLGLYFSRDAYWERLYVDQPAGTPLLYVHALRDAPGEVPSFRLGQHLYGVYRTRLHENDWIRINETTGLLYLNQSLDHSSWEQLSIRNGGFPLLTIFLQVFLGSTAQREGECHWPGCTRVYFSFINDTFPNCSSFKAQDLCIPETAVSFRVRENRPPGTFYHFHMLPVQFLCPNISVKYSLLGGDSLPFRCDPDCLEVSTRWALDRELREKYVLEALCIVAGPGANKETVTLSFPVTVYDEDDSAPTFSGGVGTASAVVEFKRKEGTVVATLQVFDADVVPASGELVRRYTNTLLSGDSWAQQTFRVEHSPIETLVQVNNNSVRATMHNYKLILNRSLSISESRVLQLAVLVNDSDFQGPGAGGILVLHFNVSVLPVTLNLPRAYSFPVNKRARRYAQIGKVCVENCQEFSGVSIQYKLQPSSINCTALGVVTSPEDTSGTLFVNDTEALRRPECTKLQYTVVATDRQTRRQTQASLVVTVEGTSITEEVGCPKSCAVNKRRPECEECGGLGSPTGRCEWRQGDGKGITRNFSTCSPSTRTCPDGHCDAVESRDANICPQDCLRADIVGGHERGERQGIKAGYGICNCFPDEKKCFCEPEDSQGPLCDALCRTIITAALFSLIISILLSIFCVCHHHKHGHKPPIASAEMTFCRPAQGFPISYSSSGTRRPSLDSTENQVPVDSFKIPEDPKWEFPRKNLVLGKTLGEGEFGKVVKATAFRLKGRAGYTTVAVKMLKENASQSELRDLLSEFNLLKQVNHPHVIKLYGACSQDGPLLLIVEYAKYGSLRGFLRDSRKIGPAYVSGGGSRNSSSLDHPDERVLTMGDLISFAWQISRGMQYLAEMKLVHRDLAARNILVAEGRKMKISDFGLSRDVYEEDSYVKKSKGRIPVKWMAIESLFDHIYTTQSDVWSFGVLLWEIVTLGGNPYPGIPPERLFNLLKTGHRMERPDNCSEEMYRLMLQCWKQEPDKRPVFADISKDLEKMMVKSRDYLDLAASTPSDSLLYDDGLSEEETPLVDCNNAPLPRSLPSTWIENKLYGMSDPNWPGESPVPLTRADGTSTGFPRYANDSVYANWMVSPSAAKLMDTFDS

**Q.** Which inhibition in vivo at 10 mg/kg (BaF3 [1]) does the source give for COc1cc2nccc(Oc3ccc(Nc4nn(C)cc4C(=O)NC45CC6CC(CC(C6)C4)C5)c(F)c3)c2cc1C(N)=O here?
**A.** Its inhibition in vivo at 10 mg/kg is 17.1%.

**Q.** What about the Activity [2] of the same compound?
**A.** The Activity was “Non-Toxic”.

**Q.** What about the inhibition (BaF3 [3]) of the same compound?
**A.** The inhibition was “Active”.

**Q.** And the Activity (BaF3 [4])?
**A.** Its Activity is “Dose-Dependent Effect”.

**Q.** What about the Activity (BaF3 [5]) of the same compound?
**A.** Its Activity is 0.25%.

**Q.** And the Activity (BaF3 [6])?
**A.** Its Activity is 3.21%.

**Q.** And the inhibition (BaF3 [7])?
**A.** Its inhibition is “Dose-Dependent Effect”.

**Q.** What about the pIC50 (BaF3 [8]) of the same compound?
**A.** The pIC50 was 8.21.

**Q.** What about the inhibition (BaF3 [9]) of the same compound?
**A.** Its inhibition is “Dose-Dependent Effect”.

**Q.** And the pIC50 (BaF3 [10])?
**A.** Its pIC50 is 7.27.

**Q.** What about the pIC50 (BaF3 [11]) of the same compound?
**A.** Its pIC50 is 7.61.

**Q.** What about the inhibition in vivo at 30 mg/kg (BaF3 [12]) of the same compound?
**A.** Its inhibition in vivo at 30 mg/kg is 66.9%.

**Q.** And the viability at 0.1 µM (BaF3 [13])?
**A.** Its viability at 0.1 µM is 88.6%.

**Q.** What about the Activity (BaF3 [14]) of the same compound?
**A.** The Activity was 0.17%.

**Q.** What about the Activity (BaF3 [15]) of the same compound?
**A.** The Activity was 0.41%.

**Q.** And the inhibition (BaF3 [16])?
**A.** Its inhibition is “Active”.

**Q.** And the pIC50 (BaF3 [17])?
**A.** Its pIC50 is 7.81.

**Q.** What about the inhibition [18] of the same compound?
**A.** Its inhibition is “Active”.

**Q.** What about the Activity (BaF3 [19]) of the same compound?
**A.** Its Activity is 53.4%.

**Q.** And the viability at 0.1 µM (BaF3 [20])?
**A.** The viability at 0.1 µM was 80.2%.

**Q.** What about the inhibition (BaF3 [21]) of the same compound?
**A.** The inhibition was “Active”.

**Q.** And the pIC50 (BaF3 [22])?
**A.** Its pIC50 is 7.27.

**Q.** And the Activity (BaF3 [23])?
**A.** The Activity was 0.24%.

**Q.** And the Activity (BaF3 [24])?
**A.** Its Activity is 2.25%.

**Q.** What about the pIC50 (BaF3 [25]) of the same compound?
**A.** The pIC50 was 7.33.

**Q.** And the viability at 0.0333 µM (BaF3 [26])?
**A.** Its viability at 0.0333 µM is 90.8%.

**Q.** What about the Activity (BaF3 [27]) of the same compound?
**A.** Its Activity is 9.4%.

**Q.** And the Activity (BaF3 [28])?
**A.** Its Activity is 1.5%.

**Q.** And the inhibition (BaF3 [29])?
**A.** Its inhibition is “Active”.

**Q.** And the pIC50 (BaF3 [30])?
**A.** The pIC50 was 7.27.

**Q.** What about the Activity (BaF3 [31]) of the same compound?
**A.** The Activity was 0.23%.

**Q.** What about the Activity (BaF3 [32]) of the same compound?
**A.** The Activity was 7.39%.
